Source: PMC3880142 (ACS chemical biology, 2013)

Target: T1, CadD (Leptospira interrogans, UniProt Q72V44)
T1 sequence (Q72V44 1-442): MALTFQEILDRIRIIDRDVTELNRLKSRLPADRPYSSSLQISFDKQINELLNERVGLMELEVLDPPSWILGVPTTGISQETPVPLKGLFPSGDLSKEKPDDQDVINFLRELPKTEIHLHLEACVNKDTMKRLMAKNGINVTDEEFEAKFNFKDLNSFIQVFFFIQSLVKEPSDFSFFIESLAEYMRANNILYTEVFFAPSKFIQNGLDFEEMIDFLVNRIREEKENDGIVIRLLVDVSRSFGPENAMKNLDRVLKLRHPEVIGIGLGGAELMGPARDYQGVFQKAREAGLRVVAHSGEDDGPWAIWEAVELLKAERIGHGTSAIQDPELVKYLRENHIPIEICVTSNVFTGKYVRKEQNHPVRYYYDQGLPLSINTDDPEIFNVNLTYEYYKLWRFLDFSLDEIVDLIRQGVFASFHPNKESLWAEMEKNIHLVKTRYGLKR
Assay: UV spectrophotometric cAMP deamination at […] nm, inhibition
Assay type: biochemical

O=P1(O)OC[C@H]2O[C@@H](n3cnc4cncnc43)[C@H](O)[C@@H]2O1 [cPuMP]
Ki: 1300 ± 500 nM
